Values quoted from earlier work, collected in PMC2119397 (The Journal of Experimental Medicine, 1992).
Like-named read-outs stand apart in the source and are kept apart here.

Test system: DR1

NALYKMNAVAKAA [NNX 83-91]
DR1 binding (in words) (ref Sinigaglia, F., unpublished observation): DR1 binding

PKYVKQNTLKLAT [HA 307-319]
DR1 binding (in words): DR1 binding

TT 830-843: DR1-binding synthetic peptide of tetanus toxoid (QYIKANSKFIGITE; UniProt P04958 830-843, looked up, fragment)
DR1 binding (in words): DRl-binding
